≈ marks a conversion by molar mass, not a printed value. Like-named read-outs stand apart in the source and are kept apart here.
Tests used:
Test in all cases: Serum MIC, broth micro-dilution
Format in all cases: cell-based
[1] = system: Klebsiella pneumoniae ATCC 700603; conditions: Klebsiella pneumoniae, ATCC700603; 50% v/v mouse serum in Mueller Hinton II cation adjusted Broth, 35° C., 22 hours; Table 4; read-out: K pneumoniae 700603 Serum MIC
Method in brief: (§1)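 Plates held at 35 °C for 22 h after adding bacteria to a final OD600 of 0.0005. Medium was a 1:1 mix of mouse serum and cation-adjusted Mueller Hinton II broth. Ten two-fold compound dilutions began at 64, 4, 0.5 or 0.13 μg/mL, per CLSI microdilution.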

[2] = system: Escherichia coli strain ATCC 25922; conditions: Escherichia coli, ATCC25922; 50% v/v mouse serum in Mueller Hinton II cation adjusted Broth, 35° C., 22 hours; Table 4; read-out: E. coli 25922 Serum MIC
Method in brief: as §1

[3] = system: Acinetobacter baumannii ATCC 17978; conditions: Acinetobacter baumannii, ATCC17978, 50% v/v mouse serum in Mueller Hinton II cation adjusted Broth, 35° C., 22 hours
Method in brief: as §1

[4] = system: Pseudomonas aeruginosa PA01; conditions: Pseudomonas aeruginosa, PA01; 50% v/v mouse serum in Mueller Hinton II cation adjusted Broth, 35° C., 22 hours; Table 4; read-out: P. aeruginosa 01 Serum MIC
Method in brief: as §1

[5] = Table 4, read-out: A. baumanii 17978 Serum MIC
[6] = Table 5, read-out: Acinetobacter baumanii 17978 Serum MIC

SMILES | MIC [1] [µM] | MIC [2] [µM] | MIC [3, 5] [µM] | MIC [3, 6] [µM] | MIC [4] [µM]
C[C@@H]1NC(=O)[C@@H](N(C)C(=O)[C@H](CNS(N)(=O)=O)NC(=O)c2cnc(-c3ccc(C(C)(C)C)cc3)nc2N)c2cc(OC[C@H](O)CN)c(O)c(c2)-c2cc(ccc2OC[C@H](O)CN)C[C@@H](C(=O)O)NC1=O [Example 46, (8S,11S,14S)-14-[[(2S)-2-[[4-amino-2-(4-tert-butylphenyl)-pyrimidine-5-carbonyl]amino]-3-(sulfamoylamino)-propanoyl]-methyl-amino]-3,17-bis[(2R)-3-amino-2-hydroxy-propoxy]-18-hydroxy-11-methyl-10,13-dioxo-9,12-diazatricyclo-[13.3.1.12,6]icosa-1(18),2(20),3,5,15(19), 16-hexaene-8-carboxylic acid] | 0.5 (≈ 0.497 µg/mL) | 0.5 (≈ 0.497 µg/mL) | 8 (≈ 7.95 µg/mL) | 8 (≈ 7.95 µg/mL) | 16 (≈ 15.9 µg/mL)
Cc1nc(-c2ccc3c(c2)CCC3(C)C)nc(N)c1C(=O)N[C@@H](CCN)C(=O)N(C)[C@@H]1C(=O)N[C@@H](C)C(=O)N[C@H](C(=O)O)Cc2ccc(OC[C@H](O)CN)c(c2)-c2cc1cc(OC[C@H](O)CN)c2O [Example 47, (8S,11S,14S)-18-hydroxy-11-methyl-14-[methyl-[(2S)-4-amino-2-[[4-amino-2-(1,1-dimethylindan-5-yl)-6-methyl-pyrimidine-5-carbonyl]amino]-butanoyl]amino]-10,13-dioxo-3,17-bis[(2R)-3-amino-2-hydroxy-propoxy]-9,12-diazatricyclo-[13.3.1.12,6]icosa-1(18),2(20),3,5,15(19), 16-hexaene-8-carboxylic acid] | 0.25 (≈ 0.239 µg/mL) | 0.25 (≈ 0.239 µg/mL) | 16 (≈ 15.3 µg/mL) | 16 (≈ 15.3 µg/mL) | 16 (≈ 15.3 µg/mL)
Cc1cc(C(C)(C)C)cc(O)c1-c1nc(C)c(C(=O)N[C@@H](CNS(N)(=O)=O)C(=O)N(C)[C@@H]2C(=O)N[C@@H](C)C(=O)N[C@H](C(=O)O)Cc3ccc(OC[C@H](O)CN)c(c3)-c3cc2cc(OC[C@H](O)CN)c3O)c(N)n1 [Example 48, (8S,11S,14S)-14-[[(2S)-2-[[4-amino-2-(4-tert-butyl-2-hydroxy-6-methyl-phenyl)-6-methyl-pyrimidine-5-carbonyl]amino]-3-(sulfamoylamino)-propanoyl]-methyl-amino]-3,17-bis[(2R)-3-amino-2-hydroxy-propoxy]-18-hydroxy-11-methyl-10,13-dioxo-9,12-diazatri-cyclo[13.3.1.12,6]icosa-1(18),2(20),3,5,15(19), 16-hexaene-8-carboxylic acid] | 1 (≈ 1.04 µg/mL) | 0.75 (≈ 0.779 µg/mL) | 16 (≈ 16.6 µg/mL) | 16 (≈ 16.6 µg/mL) | 3 (≈ 3.11 µg/mL)
Cc1nc(-c2ccc(OCCC(C)(C)C)nc2)nc(N)c1C(=O)N[C@@H](CNS(N)(=O)=O)C(=O)N(C)[C@@H]1C(=O)N[C@@H](C)C(=O)N[C@H](C(=O)O)Cc2ccc(OC[C@H](O)CN)c(c2)-c2cc1cc(OC[C@H](O)CN)c2O [Example 54, (8S,11S,14S)-14-[[(2S)-2-[[4-amino-2-[6-(3,3-dimethyl-butoxy)-3-pyridyl]-6-methyl-pyrimidine-5-carbonyl]amino]-3-(sulfamoylamino)-propanoyl]-methyl-amino]-3,17-bis[(2R)-3-amino-2-hydroxy-propoxy]-18-hydroxy-11-methyl-10,13-dioxo-9,12-diazatri-cyclo[13.3.1.12,6]icosa-1(18),2(20),3,5,15(19), 16-hexaene-8-carboxylic acid] | 0.5 (≈ 0.527 µg/mL) | 0.38 (≈ 0.4 µg/mL) | 8 (≈ 8.43 µg/mL) | 8 (≈ 8.43 µg/mL) | 4 (≈ 4.21 µg/mL)

Continued, values first:

MIC [1] [µM] | MIC [2] [µM] | MIC [3, 5] [µM] | MIC [3, 6] [µM] | MIC [4] [µM] | SMILES
1 (≈ 1.01 µg/mL) | 0.5 (≈ 0.504 µg/mL) | 16 (≈ 16.1 µg/mL) | 16 (≈ 16.1 µg/mL) | 8 (≈ 8.06 µg/mL) | Cc1cc(-c2ccc(C(C)(C)C)cc2)nc(N)c1C(=O)N[C@@H](CNS(N)(=O)=O)C(=O)N(C)[C@@H]1C(=O)N[C@@H](C)C(=O)N[C@H](C(=O)O)Cc2ccc(OC[C@H](O)CN)c(c2)-c2cc1cc(OC[C@H](O)CN)c2O [Example 49, (8S,11S,14S)-14-[[(2S)-2-[[2-amino-6-(4-tert-butylphenyl)-4-methyl-pyridine-3-carbonyl]amino]-3-(sulfamoylamino)-propanoyl]-methyl-amino]-3,17-bis[(2R)-3-amino-2-hydroxy-propoxy]-18-hydroxy-11-methyl-10,13-dioxo-9,12-diazatri-cyclo[13.3.1.12,6]icosa-1(18),2(20),3,5,15(19), 16-hexaene-8-carboxylic acid]
0.13 (≈ 0.125 µg/mL) | 0.19 (≈ 0.183 µg/mL) | 8 (≈ 7.7 µg/mL) | 8 (≈ 7.7 µg/mL) | 8 (≈ 7.7 µg/mL) | C[C@@H]1NC(=O)[C@@H](N(C)C(=O)[C@H](CCN)NC(=O)c2c(N)cc(-c3ccc(C(C)(C)C)cc3)nc2Cl)c2cc(OC[C@H](O)CN)c(O)c(c2)-c2cc(ccc2OC[C@H](O)CN)C[C@@H](C(=O)O)NC1=O [Example 51, (8S,11S,14S)-18-hydroxy-11-methyl-14-[methyl-[(2S)-4-amino-2-[[4-amino-6-(4-tert-butylphenyl)-2-chloro-pyridine-3-carbonyl]amino]-butanoyl]amino]-10,13-dioxo-3,17-bis[(2R)-3-amino-2-hydroxy-propoxy]-9,12-diazatricyclo-[13.3.1.12,6]icosa-1(18),2(20),3,5,15(19), 16-hexaene-8-carboxylic acid]
1 (≈ 1.05 µg/mL) | 0.5 (≈ 0.526 µg/mL) | 16 (≈ 16.8 µg/mL) | 16 (≈ 16.8 µg/mL) | 8 (≈ 8.42 µg/mL) | Cc1nc(-c2c(O)cc3c(c2O)CCC3(C)C)nc(N)c1C(=O)N[C@@H](CNS(N)(=O)=O)C(=O)N(C)[C@@H]1C(=O)N[C@@H](C)C(=O)N[C@H](C(=O)O)Cc2ccc(OC[C@H](O)CN)c(c2)-c2cc1cc(OC[C@H](O)CN)c2O [Example 52, (8S,11S,14S)-18-hydroxy-11-methyl-14-[methyl-[(2S)-2-[[4-amino-2-(4,6-dihydroxy-1,1-dimethyl-indan-5-yl)-6-methyl-pyrimidine-5-carbonyl]amino]-3-(sulfamoylamino)-propanoyl]amino]-10,13-dioxo-3,17-bis[(2R)-3-amino-2-hydroxy-propoxy]-9,12-diazatricyclo-[13.3.1.12,6]icosa-1(18),2(20),3,5,15(19), 16-hexaene-8-carboxylic acid]
0.5 (≈ 0.514 µg/mL) | 0.38 (≈ 0.391 µg/mL) | 6 (≈ 6.17 µg/mL) | 6 (≈ 6.17 µg/mL) | 3 (≈ 3.09 µg/mL) | C[C@@H]1NC(=O)[C@@H](N(C)C(=O)[C@H](CNS(N)(=O)=O)NC(=O)c2c(N)nc(-c3ccc(C(C)(C)C)cc3)nc2Cl)c2cc(OC[C@H](O)CN)c(O)c(c2)-c2cc(ccc2OC[C@H](O)CN)C[C@@H](C(=O)O)NC1=O [Example 53, (8S,11S,14S)-14-[[(2S)-2-[[4-amino-2-(4-tert-butylphenyl)-6-chloro-pyrimidine-5-carbonyl]amino]-3-(sulfamoylamino)-propanoyl]-methyl-amino]-3,17-bis[(2R)-3-amino-2-hydroxy-propoxy]-18-hydroxy-11-methyl-10,13-dioxo-9,12-diazatri-cyclo[13.3.1.12,6]icosa-1(18),2(20),3,5,15(19), 16-hexaene-8-carboxylic acid]

Reference: patent US11208387B2, “Macrocyclic broad spectrum antibiotics” (Genentech, Inc., priority 2019, dated 2021)
